Consider 1 compound from patent US20020028248A1, “RAPID-RELEASE MICRODISPERSIBLE ECADOTRIL PREPARATION” (priority 1996, published 2002).

Where two headings read alike, the source gives them in different places.

Series [1] in a line: Solubility of Ecadotril in water. Particulars: 37 °C. The series is classed as physicochemical. An excerpt:
Ecadotril (N-[(S)-α-(mercaptomethyl)hydrocinnamoyl]glycine, benzyl ester, acetate(ester); N-[(S)-α-(acetylthiomethyl)hydrocinnamoyl]glycine, benzyl ester) is an enkephalinase inhibitor used as a hypotensive drug, a cardiac insufficiency therapeutic drug, or the like. […] Therefore, when formulated into tablets, capsules, or the like by conventional methods, sufficient absorbability of Ecadotril in the digestive tract cannot be obtained because of low dispersibility of drug particles. Thus, a preparation of Ecadotril with improved bioavailability, in particular a tablet with high content, has been demanded. Generally, it is known that in order to obtain sufficient absorbability of such water-insoluble drugs, the solubility (dissolving rate) of the drugs is enhanced. For example, Japanese Laid-Open Patent Publication No. 7-76516 discloses a method for spray drying dispersions in which finely ground drug particles and a hydrophilic excipient are dispersed in water. However, according to this method, when powder to be obtained is formulated into tablets, there is a possibility that drug particles come into close contact with each other thereby decreasing the disintegration property and absorbability of the preparation. Furthermore, in the case where water-insoluble drugs such as Ecadotril with a low melting point and high plasticity are used, particles are likely to aggregate. […]

Series [2] is described as follows: Dissolution test (in vitro test), paddle method. The conditions noted are these: 100 mg of the preparation, distilled water 900 ml, 37° C. The series is classed as physicochemical. The procedure:
(2) Dissolution test (in vitro test) Apparatus: Dissolution test machine in accordance with The 12th revised Japanese Pharmacopoeia using the paddle method a stirring speed 100 rpm. Test solution: Distilled water 900 ml, 37° C. Collection of solution: Eluates are collected 5, 10, 15, 30, 45, and 60 minutes after the commencement of dissolution, and the respective eluates are filtrated through […] 13; Kento Chemical Co., Ltd.) aqueous filter (0.22 μm). Then, about 1.5 ml each of the filtrates is collected. One milliliter of this filtrate or standard solution is mixed with 1 ml of internal standard, and 25 μl of the mixed solution is injected to HPLC.

For `CC(=O)SC[C@@H](Cc1ccccc1)C(=O)NCC(=O)OCc1ccccc1` [Ecadotril, N-[(S)-α-(mercaptomethyl)hydrocinnamoyl]glycine, benzyl ester, acetate(ester)], the solubility in series [1] (read-out: solubility in water) is approximately 33 µg/mL; in series [1] (read-out: solubility of Ecadotril in water) it was 33 µg/mL. The “maximum dissolution amount in the present test” value in series [2] is given as “about 30%”.
